Measured values from patent US5063152A, “Synthetic peptidic substrate for determination of trypsin and α1” (Nitto Boseki Co., Ltd., priority 1985, dated 1991).
Several values for one entry are separate records, joined by “and”; a condition that tells them apart may be missing. Equal values may be shown once. Square brackets hold non-standard residues; d marks the D form. Peptide text beside a SMILES is read from it. * marks the point of attachment. pNA = O=[N+]([O-])c1ccc(N*)cc1; Cbz = O=C(OCc1ccccc1)*

What was measured:
[1] = molecular target: T1, Trypsin (Try) (Bos taurus, UniProt P00760); assay: substrate specificity test, reaction with trypsin; assay type: biochemical, Bovine; settings: for measured optical density (absorbance), trypsin: initial substrate concentration 2 mmol/l, 37° C., 5 minutes; for relative reactivity of substrate with trypsin: reactivity of PS-1188N taken as 100, initial substrate concentration 2 mmol
T1 construct: purchased Worthington
T1 sequence (P00760 24-246): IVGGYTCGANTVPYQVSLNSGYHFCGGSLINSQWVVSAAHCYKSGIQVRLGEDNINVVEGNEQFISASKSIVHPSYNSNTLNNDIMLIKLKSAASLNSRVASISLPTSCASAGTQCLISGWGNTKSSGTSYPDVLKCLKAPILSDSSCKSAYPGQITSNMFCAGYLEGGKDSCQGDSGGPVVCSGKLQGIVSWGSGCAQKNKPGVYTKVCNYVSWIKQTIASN
Method: (§1) The synthetic peptides obtained in Examples 1 and 2 were subjected to a substrate specificity test by reacting with various enzymes under the following conditions.
(§2) 1) substrate solution: 10 mmol/l (concentration)
(§3) 2) buffer solution: tris-HCl buffer
(§4) Concentrations of NaCl, and CaCl2 and pH (at 25° C.) were adjusted as shown in Table 2 depending on enzymes to be reacted: […]
(§5) 4) Reaction stopper solution in the case of pNA: 10% acetic acid
(§6) 5) Color producing reagent for CHA: sodium pentacyanoamine ferroate
(§7) The buffer solution in an amount of 0.3 ml and 0.1 ml of an enzyme solution were placed in a test tube made of hard glass treated with silicon or a test tube made of a plastic (polystyrene) and preheated for 5 minutes in a constant temperature bath maintained at 37° C. Then, 0.1 ml of a substrate solution was added to the test tube and incubated at 37° C. for just 5 minutes. Subsequently, 2.0 ml of the reaction stopper solution (in the case of pNA) or the color producing reagent (in the case of CHA) was added to the reaction solution to terminate the enzymatic reaction. After allowing to stand at 37° C. for 10 minutes, absorbance (optical density) at 405 nm (in the case of pNA) or at 700 nm (in the case of coupled CHA) was measured. The initial substrate concentration was 2 mmol/l.

[2] = molecular target: T2, Thrombin (TH) (Bos taurus, UniProt P00735); assay: substrate specificity test, reaction with thrombin; assay type: biochemical, Bovine; settings: for measured optical density (absorbance), thrombin: initial substrate concentration 2 mmol/l, 37° C., 5 minutes; for relative reactivity in the case of thrombin: Table 1, PS-1188N = 100; for relative reactivity of substrate with thrombin: reactivity of PS-1188N taken as 100, initial substrate concentration 2 mmol
T2 construct: Thrombin; purchased Mochida Pharmaceutical Co., Ltd
Method: as §1, §2, §3, §4, §5, §6, §7

[3] = molecular target: T3, Plasmin (PL) (Homo sapiens, UniProt P00747); assay: substrate specificity test, reaction with plasmin; assay type: biochemical; settings: for measured optical density (absorbance), plasmin: initial substrate concentration 2 mmol/l, 37° C., 5 minutes; for relative reactivity in the case of plasmin: Table 1, PS-1188N = 100; for relative reactivity of substrate with plasmin: reactivity of PS-1188N taken as 100, initial substrate concentration 2 mmol
T3 construct: Plasmin Human; purchased Green Cross Corp
Method: as §1, §2, §3, §4, §5, §6, §7

[4] = molecular target: T4, Factor Xa (FXa) (Bos taurus, UniProt P00743); assay: substrate specificity test, reaction with factor Xa; assay type: biochemical, Bovine; settings: for measured optical density (absorbance), factor Xa: initial substrate concentration 2 mmol/l, 37° C., 5 minutes; for relative reactivity in the case of factor Xa: Table 1, PS-1188N = 100; for relative reactivity of substrate with factor Xa: reactivity of PS-1188N taken as 100, initial substrate concentration 2 mmol
T4 construct: Factor Xa; purchased Sigma Chem. Co
Method: as §1, §2, §3, §4, §5, §6, §7

[5] = molecular target: T5, Kallikrein (KL) (Sus scrofa, UniProt P00752); assay: substrate specificity test, reaction with kallikrein; assay type: biochemical, Porcine; settings: for measured optical density (absorbance), kallikrein: initial substrate concentration 2 mmol/l, 37° C., 5 minutes; for relative reactivity in the case of kallikrein: Table 1, PS-1188N = 100; for relative reactivity of substrate with kallikrein: reactivity of PS-1188N taken as 100, initial substrate concentration 2 mmol
T5 construct: purchased Sigma Chem. Co
Method: as §1, §2, §3, §4, §5, §6, §7

[6] = molecular target: T6, Urokinase (UK) (Homo sapiens, UniProt P00749); assay: substrate specificity test, reaction with urokinase; assay type: biochemical; settings: initial substrate concentration 2 mmol/l, 37° C., 5 minutes
T6 construct: purchased Mochida Pharmaceutical Co., Ltd
Method: as §1, §2, §3, §4, §5, §6, §7

T5 sequence (P00752 8-246): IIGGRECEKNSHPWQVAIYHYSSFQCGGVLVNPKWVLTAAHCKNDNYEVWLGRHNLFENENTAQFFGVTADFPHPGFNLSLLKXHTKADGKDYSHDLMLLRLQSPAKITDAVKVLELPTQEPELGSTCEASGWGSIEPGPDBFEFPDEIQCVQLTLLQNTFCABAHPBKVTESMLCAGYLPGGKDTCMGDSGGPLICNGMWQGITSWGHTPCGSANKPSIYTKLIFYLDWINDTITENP
T3 sequence (P00747 581-810 limits assumed): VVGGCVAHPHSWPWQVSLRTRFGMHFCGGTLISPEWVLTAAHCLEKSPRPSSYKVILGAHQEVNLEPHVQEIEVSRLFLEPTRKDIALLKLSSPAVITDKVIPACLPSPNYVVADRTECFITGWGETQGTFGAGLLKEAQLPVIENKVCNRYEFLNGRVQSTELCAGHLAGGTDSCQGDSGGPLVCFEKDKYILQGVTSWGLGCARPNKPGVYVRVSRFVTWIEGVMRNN
T3 sequence (P00747 97-580 partner limits assumed): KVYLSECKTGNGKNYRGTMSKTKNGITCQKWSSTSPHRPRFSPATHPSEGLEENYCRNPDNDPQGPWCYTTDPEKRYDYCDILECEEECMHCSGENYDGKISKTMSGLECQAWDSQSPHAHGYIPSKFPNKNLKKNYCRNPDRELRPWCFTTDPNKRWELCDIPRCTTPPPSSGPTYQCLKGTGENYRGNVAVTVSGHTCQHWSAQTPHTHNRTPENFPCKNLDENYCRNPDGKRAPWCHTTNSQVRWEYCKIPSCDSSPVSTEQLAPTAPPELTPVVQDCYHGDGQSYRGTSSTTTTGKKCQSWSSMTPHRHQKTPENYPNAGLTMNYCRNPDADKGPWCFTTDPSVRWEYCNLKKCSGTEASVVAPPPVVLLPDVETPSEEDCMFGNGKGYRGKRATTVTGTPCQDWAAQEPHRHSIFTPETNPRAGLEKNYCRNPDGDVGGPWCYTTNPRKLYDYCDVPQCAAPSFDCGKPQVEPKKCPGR
T4 sequence (P00743 234-492 limits assumed): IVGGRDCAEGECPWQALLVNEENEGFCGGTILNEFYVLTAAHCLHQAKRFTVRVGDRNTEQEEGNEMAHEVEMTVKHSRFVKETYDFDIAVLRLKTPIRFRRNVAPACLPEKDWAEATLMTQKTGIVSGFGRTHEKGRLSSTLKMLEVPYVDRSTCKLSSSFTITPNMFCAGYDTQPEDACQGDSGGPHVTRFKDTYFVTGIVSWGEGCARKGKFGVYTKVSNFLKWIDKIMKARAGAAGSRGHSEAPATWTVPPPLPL
T4 sequence (P00743 41-180 partner limits assumed): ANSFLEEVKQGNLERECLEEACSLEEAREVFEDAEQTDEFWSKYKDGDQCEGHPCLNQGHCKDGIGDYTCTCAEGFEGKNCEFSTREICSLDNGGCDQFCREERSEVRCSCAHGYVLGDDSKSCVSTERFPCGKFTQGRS

| measured optical density (absorbance), trypsin ([1]; 405 nm (pNA)) | relative reactivity of substrate with trypsin [1] | measured optical density (absorbance), thrombin ([2]; 405 nm (pNA)) | relative reactivity in the case of thrombin [2] | relative reactivity of substrate with thrombin [2] | measured optical density (absorbance), plasmin ([3]; 405 nm (pNA)) | relative reactivity in the case of plasmin [3] | relative reactivity of substrate with plasmin [3] | measured optical density (absorbance), factor Xa ([4]; 405 nm (pNA)) | relative reactivity in the case of factor Xa [4] | relative reactivity of substrate with factor Xa [4] | measured optical density (absorbance), kallikrein ([5]; 405 nm (pNA)) | relative reactivity in the case of kallikrein [5] | relative reactivity of substrate with kallikrein [5] | measured optical density (absorbance), urokinase ([6]; 405 nm (pNA)) | Compound | also measured |
| --- | --- | --- | --- | --- | --- | --- | --- | --- | --- | --- | --- | --- | --- | --- | --- | --- |
| 2.601 | 1626 | 0.066 | 2200% | 2200 | 0.057 | 43% | 43 | 0.148 | 2114% | 2114 | 0.029 | 74% | 74 | 0.112 | CC(C)[C@H](NC(=O)OCc1ccccc1)C(=O)NCC(=O)N[C@@H](CCCNC(=N)N)C(=O)Nc1ccc([N+](=O)[O-])cc1 [CHR-TRY, Z-Val-Gly-Arg-pNA] (Cbz-Val-Gly-Arg-pNA) |  |
|  | 86 |  | 0% | 0 |  | 3% | 3 |  | 37% | 37 |  | 2% | 2 |  | CC(C)C[C@H](NC(=O)[C@H]1CCCN1)C(=O)N[C@@H](CCCCN)C(=O)Nc1ccc(O)c(C(=O)O)c1 [PS-1188, H-D -Pro-Leu-Lys-CHA] | measured optical density (absorbance), trypsin ([1]; 700 nm (coupled CHA)): 0.314; measured optical density (absorbance), thrombin ([2]; 700 nm (coupled CHA)): 0.0; measured optical density (absorbance), plasmin ([3]; 700 nm (coupled CHA)): 0.008; measured optical density (absorbance), factor Xa ([4]; 700 nm (coupled CHA)): 0.006; measured optical density (absorbance), kallikrein ([5]; 700 nm (coupled CHA)): 0.002; measured optical density (absorbance), urokinase ([6]; 700 nm (coupled CHA)): 0.001 |
| 0.160 | 100 | 0.003 |  | 100 | 0.134 |  | 100 | 0.007 |  | 100 | 0.032 and 0.039 |  | 100 | 0.0 | CC(C)C[C@H](NC(=O)[C@H]1CCCN1)C(=O)N[C@@H](CCCCN)C(=O)Nc1ccc([N+](=O)[O-])cc1 [PS-1188N, H-D -Pro-Leu-Lys-pNA] (H-[dP]-Leu-Lys-pNA) |  |
